The source of these data is publication PMC3893112 (Journal of medicinal chemistry, 2013).

The structures appear in SMILES notation.

Assay [1] addresses T1, human δ opioid receptor over-expressed in CHO cells (Homo sapiens, UniProt P41143). Briefly: [35S]GTPγS binding assay, agonist mode, δ. It is filed as biochemical. The settings on record: for Agonist activity at the δ receptor (in words): [35S]GTPγS. (Binding of GTPγS marks nucleotide exchange on a G protein.)
Assay [2] addresses T2, human κ opioid receptor over-expressed in CHO cells (Homo sapiens, UniProt P41145). Briefly: [35S]GTPγS binding assay, agonist mode, κ. It is filed as biochemical.
Assay [3] addresses T1, human δ opioid receptor over-expressed in CHO cells. Put plainly: Inhibition of DPDPE-stimulated [35S]GTPγS binding. It is filed as biochemical. To be noted: for Antagonist δ, DPDPE Ke: vs DPDPE-stimulated [35S]GTPγS binding.
The target in assay [4] is T2, human κ opioid receptor over-expressed in CHO cells. Put plainly: Inhibition of κ agonist-stimulated [35S]GTPγS binding. The settings on record: for Antagonist κ, U50,488 Ke: vs κ agonist-stimulated [35S]GTPγS binding. It is filed as biochemical.
Assay [5] addresses human μ opioid receptor over-expressed in CHO cells (Homo sapiens, UniProt P35372). Briefly: [35S]GTPγS binding assay, agonist mode, μ. It is filed as biochemical.
The target in a further assay is human MOR (Homo sapiens, UniProt P35372). Briefly: Competition radioligand binding, [3H]DAMGO. To be noted: Ki vs Kd of DAMGO.
Chain of human MOR (P35372 whole entry): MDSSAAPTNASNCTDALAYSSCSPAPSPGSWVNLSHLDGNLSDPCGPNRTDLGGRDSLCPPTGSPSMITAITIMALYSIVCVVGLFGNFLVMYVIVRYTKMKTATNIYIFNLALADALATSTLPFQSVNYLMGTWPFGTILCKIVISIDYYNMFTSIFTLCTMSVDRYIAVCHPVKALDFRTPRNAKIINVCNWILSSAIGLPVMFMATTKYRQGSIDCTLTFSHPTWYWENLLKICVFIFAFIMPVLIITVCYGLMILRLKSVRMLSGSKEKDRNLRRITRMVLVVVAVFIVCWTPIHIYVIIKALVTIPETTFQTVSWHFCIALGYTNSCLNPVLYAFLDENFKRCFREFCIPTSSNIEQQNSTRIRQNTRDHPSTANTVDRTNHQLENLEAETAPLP

T1 sequence (P41143 whole entry): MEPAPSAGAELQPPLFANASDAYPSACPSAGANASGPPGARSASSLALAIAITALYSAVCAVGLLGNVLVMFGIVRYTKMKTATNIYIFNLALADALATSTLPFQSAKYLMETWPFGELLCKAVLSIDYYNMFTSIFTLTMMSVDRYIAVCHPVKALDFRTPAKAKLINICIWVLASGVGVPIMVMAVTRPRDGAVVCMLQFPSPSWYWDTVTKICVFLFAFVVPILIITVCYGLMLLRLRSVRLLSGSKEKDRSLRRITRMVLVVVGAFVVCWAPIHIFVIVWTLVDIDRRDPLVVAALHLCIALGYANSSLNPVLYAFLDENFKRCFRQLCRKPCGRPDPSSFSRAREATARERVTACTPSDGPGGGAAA
T2 sequence (P41145 whole entry): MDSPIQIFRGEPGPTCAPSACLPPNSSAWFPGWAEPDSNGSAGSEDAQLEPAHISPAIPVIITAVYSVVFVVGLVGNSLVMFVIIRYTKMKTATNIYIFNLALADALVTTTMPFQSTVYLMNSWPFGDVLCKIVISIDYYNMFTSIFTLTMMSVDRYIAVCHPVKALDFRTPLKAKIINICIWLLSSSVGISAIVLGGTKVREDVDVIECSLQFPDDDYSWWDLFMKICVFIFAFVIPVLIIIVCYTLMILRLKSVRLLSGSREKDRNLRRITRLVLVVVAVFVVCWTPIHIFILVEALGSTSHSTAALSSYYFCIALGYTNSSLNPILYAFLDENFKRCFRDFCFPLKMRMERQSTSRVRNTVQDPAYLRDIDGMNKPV
Chain of human μ opioid receptor over-expressed in CHO cells (P35372 whole entry): as the sequence (P35372 whole entry) above

What is called EC50 is the concentration giving half of the maximal effect. High values mean a less potent agent, low ones a more potent agent. Regarding `CCN(C)[C@H]1C[C@H]2C[C@@](c3cccc(O)c3)(C1)[C@H](C)CN2CCCc1ccccc1` [Compound 5g, 7-(N-Ethylmethylamino)-5-(3-hydroxyphenyl)-4-methyl-2-(3-phenylprop-1-yl)-2 azabicyclo[3.3.1]nononane], the EC50 in assay [1] and in assay [2] was greater than 5000 nM in each case. Also, the Kb in assay [3] is greater than 5000 nM; in assay [4] it was 93 ± 29 nM.
Consider `CCN[C@H]1C[C@H]2C[C@@](c3cccc(O)c3)(C1)[C@H](C)CN2CCCc1ccccc1.Cl.Cl` [Compound 5c, 7-Ethylamino-5-(3-hydroxyphenyl)-4-methyl-2-(3-phenlylprop-1-yl)-2-azabicyclo[3.3.1]nononane], for which, in assay [1], the EC50 is greater than 5000 nM and the “Agonist activity at the δ receptor (in words)” value is reported as “complete loss of agonist activity”. In assay [2], this molecule registered an EC50 greater than 5000 nM. In assay [3], the Kb is 230 ± 93 nM and the “Antagonist δ, DPDPE Ke” value amounted to 230 nM. Besides, in assay [4], the Kb came out at 60.8 ± 19 nM and the “Antagonist κ, U50,488 Ke” value is recorded as 60.8 nM.
A word on the IC50: it is the point on the concentration scale where inhibition reaches its midpoint. A lower IC50 goes with inhibition by little substance. `C[C@H]1CN(CCCc2ccccc2)[C@@H]2C[C@@H](N)C[C@@]1(c1cccc(O)c1)C2` [Compound 6, (1S,4R,5R,7S)-7-aminomorphan] had a 50% inhibitory concentration (IC50) in assay [5] of 20.6 nM. The half-maximal effective concentration (EC50) in assay [1] and in assay [2] was greater than 5000 nM each time. Moreover, the Kb in assay [3] worked out at 25.2 ± 8 nM; in assay [4] it was 21.7 ± 7 nM. Also, the “Antagonist δ, DPDPE Ke” value in assay [3] is given as 25.2 nM. The “Antagonist κ, U50,488 Ke” value in assay [4] is 21.7 nM.
As to `C[C@@H]1CN(CCCc2ccccc2)[C@H]2C[C@H](NCC3CC3)C[C@]1(c1cccc(O)c1)C2.Cl.Cl` [Compound 5e, 7-(N-Cyclopropylmethylamino)-5-(3-hydroxyphenyl)-4-methyl-2-(3-phenylprop-1-yl)-2-azabicyclo[3.3.1]nononane], the concentration giving a half-maximal response (EC50) in assay [1] and in assay [2] was greater than 5000 nM in each case.
Turning to `CCCN[C@H]1C[C@H]2C[C@@](c3cccc(O)c3)(C1)[C@H](C)CN2CCCc1ccccc1.Cl.Cl` [Compound 5d, 5-(3-Hydroxyphenyl)-4-methyl-2-(3-phenylprop-1-yl)-7-propylamino-2-azabicyclo[3.3.1]nononane], in assay [1], the concentration for a half-maximal effect (EC50) is greater than 5000 nM and the “Agonist activity at the δ receptor (in words)” value is listed as “no agonist activity”. In assay [3], the Kb was found to be 69.4 ± 16 nM and the “Antagonist δ, DPDPE Ke” value is reported as 69.4 nM.
Turning to `C[C@@H]1CN(CCCc2ccccc2)[C@H]2C[C@H](N(C)C)C[C@]1(c1cccc(O)c1)C2.Cl.Cl` [Compound 5f, 7-Dimethylamino-5-(3-hydroxyphenyl)-4-methyl-2-(3-phenylprop-1-yl)-2-azabicyclo[3.3.1]nononane], the 50% effective concentration (EC50) in assay [2] is greater than 5000 nM. In assay [4], the Kb is 176 ± 50 nM and the “Antagonist κ, U50,488 Ke” value is reported as 176 nM. At human MOR, the “Affinity for MOR compared with DAMGO” value is listed as “higher affinity for MOR than DAMGO”.
Turning to `C[C@@H]1CN(CCCc2ccccc2)[C@@H]2CCC[C@]1(c1cccc(O)c1)C2.Cl` [Compound 4, 3-[(1R,4S,5S)-4-Methyl-2-(3-phenylpropyl)-2-azabicyclo[3.3.1]non-5-yl]phenol], the EC50 in assay [5], in assay [1] and in assay [2] was greater than 5000 nM throughout.
Take `C[C@@H]1CN(CCCc2ccccc2)[C@H]2C[C@H](N(C)CC3CC3)C[C@]1(c1cccc(O)c1)C2.Cl.Cl` [Compound 5h, 7-(N-Cyclopropylmethylmethylamino)-5-(3-hydroxyphenyl)-4-methyl-2-(3-phenylprop-1-yl)-2-azabicyclo[3.3.1]nononane]: the “Affinity for MOR compared with DAMGO” value on human MOR is “higher affinity for MOR than DAMGO”.
Take `C[C@@H]1CN(CCCc2ccccc2)[C@H]2C[C@H](N)C[C@]1(c1cccc(O)c1)C2.Cl.Cl` [Compound 5a, (−)-5-(3-hydroxyphenyl)-4-methyl-2-(3-phenylpropyl)-2-azabicyclo[3.3.1]nonan-7-amine]: in assay [2], the half-maximal effective concentration (EC50) was greater than 5000 nM. Further, in assay [4], the Kb was determined as 10.1 ± 3 nM and the “Antagonist κ, U50,488 Ke” value was found to be 10.1 nM.
In assay [2], `CN[C@H]1C[C@H]2C[C@@](c3cccc(O)c3)(C1)[C@H](C)CN2CCCc1ccccc1.Cl.Cl` [Compound 5b, 5-(3-Hydroxyphenyl)-4-methyl-7-methylamino-2-(3-phenylprop-1-yl)-2-azabicyclo[3.3.1]nononane] yielded an EC50 greater than 5000 nM. In addition, in assay [4], the Kb is 43.8 ± 8 nM and the “Antagonist κ, U50,488 Ke” value amounted to 43.8 nM. Also, at human MOR, the “Affinity for MOR compared with DAMGO” value is given as “higher affinity for MOR than DAMGO”.
